# Data published in PMC7614683, “A small molecule PI3Kα activator for cardioprotection and neuroregeneration” (Nature, 2023).
# Read-outs that look alike come from different tables or passages of the source.
# Tests used:
# Experiment in all cases: SelectScreen Z-LYTE kinase activity assay (SI Table 6)
# Assay type in all cases: biochemical
# [1] = molecular target: protein kinases of the Z-LYTE panel (Homo sapiens, UniProt P45983); conditions: MAPK8 (JNK1), 1000 nM, [ATP] 100 μM
# How it was run: (§1)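 Single-point profiling, 1 μM 1938; LanthaScreen binding, Adapta or Z-LYTE read-outs; 133 protein + 7 lipid kinases.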
# [2] = molecular target: protein kinases of the Z-LYTE panel (Homo sapiens, UniProt Q9HCP0)
# How it was run: as §1
# [3] = molecular target: protein kinases of the Z-LYTE panel (Homo sapiens, UniProt P54646)
# How it was run: as §1
# [4] = molecular target: protein kinases of the Z-LYTE panel (Homo sapiens, UniProt Q06187)
# How it was run: as §1
# [5] = molecular target: protein kinases of the Z-LYTE panel (Homo sapiens, UniProt O96013)
# How it was run: as §1
# [6] = molecular target: protein kinases of the Z-LYTE panel (Homo sapiens, UniProt P42345)
# How it was run: as §1
# [7] = molecular target: protein kinases of the Z-LYTE panel (Homo sapiens, UniProt Q15418)
# How it was run: as §1
# [8] = molecular target: protein kinases of the Z-LYTE panel (Homo sapiens, UniProt P04629)
# How it was run: as §1
# [9] = molecular target: protein kinases of the Z-LYTE panel (Homo sapiens, UniProt Q02750); conditions: MAP2K1 (MEK1), 1000 nM, [ATP] 100 μM
# How it was run: as §1
# [10] = molecular target: protein kinases of the Z-LYTE panel (Homo sapiens, UniProt P23443)
# How it was run: as §1
# [11] = molecular target: protein kinases of the Z-LYTE panel (Homo sapiens, UniProt Q9UM73)
# How it was run: as §1
# [12] = molecular target: T1, protein kinases of the Z-LYTE panel (Homo sapiens, UniProt P51955)
# T1 sequence (P51955 1-445): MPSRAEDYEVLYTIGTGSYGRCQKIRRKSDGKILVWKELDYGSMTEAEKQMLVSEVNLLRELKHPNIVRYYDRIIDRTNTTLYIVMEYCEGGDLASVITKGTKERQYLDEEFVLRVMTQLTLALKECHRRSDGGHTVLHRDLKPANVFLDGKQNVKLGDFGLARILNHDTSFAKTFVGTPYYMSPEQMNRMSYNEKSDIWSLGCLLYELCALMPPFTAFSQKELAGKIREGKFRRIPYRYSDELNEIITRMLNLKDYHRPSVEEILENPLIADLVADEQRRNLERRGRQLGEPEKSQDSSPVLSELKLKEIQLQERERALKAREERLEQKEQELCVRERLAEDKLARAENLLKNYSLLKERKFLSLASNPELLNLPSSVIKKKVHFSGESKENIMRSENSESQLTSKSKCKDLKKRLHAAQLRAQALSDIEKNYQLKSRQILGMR
# How it was run: as §1
# [13] = molecular target: protein kinases of the Z-LYTE panel (Homo sapiens, UniProt P06213)
# How it was run: as §1
# [14] = molecular target: protein kinases of the Z-LYTE panel (Homo sapiens, UniProt P49841)
# How it was run: as §1
# protein kinases of the Z-LYTE panel (Homo sapiens, UniProt P54646), sequence (P54646 whole entry): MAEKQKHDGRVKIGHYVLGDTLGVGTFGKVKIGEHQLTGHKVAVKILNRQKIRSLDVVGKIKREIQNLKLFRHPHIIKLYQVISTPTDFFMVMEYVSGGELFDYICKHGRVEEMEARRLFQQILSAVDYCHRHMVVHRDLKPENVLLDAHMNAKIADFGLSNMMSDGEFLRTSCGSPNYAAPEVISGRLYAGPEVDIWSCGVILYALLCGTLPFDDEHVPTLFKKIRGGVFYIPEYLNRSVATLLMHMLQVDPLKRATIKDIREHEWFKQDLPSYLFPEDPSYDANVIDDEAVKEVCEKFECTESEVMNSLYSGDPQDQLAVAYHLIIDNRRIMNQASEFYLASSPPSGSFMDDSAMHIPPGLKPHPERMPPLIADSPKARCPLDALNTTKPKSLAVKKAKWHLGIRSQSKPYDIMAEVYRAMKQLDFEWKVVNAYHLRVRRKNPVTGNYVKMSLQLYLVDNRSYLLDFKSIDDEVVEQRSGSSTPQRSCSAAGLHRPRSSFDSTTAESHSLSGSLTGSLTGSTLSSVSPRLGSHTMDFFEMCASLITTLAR
# protein kinases of the Z-LYTE panel (Homo sapiens, UniProt Q9UM73), sequence (Q9UM73 19-1620): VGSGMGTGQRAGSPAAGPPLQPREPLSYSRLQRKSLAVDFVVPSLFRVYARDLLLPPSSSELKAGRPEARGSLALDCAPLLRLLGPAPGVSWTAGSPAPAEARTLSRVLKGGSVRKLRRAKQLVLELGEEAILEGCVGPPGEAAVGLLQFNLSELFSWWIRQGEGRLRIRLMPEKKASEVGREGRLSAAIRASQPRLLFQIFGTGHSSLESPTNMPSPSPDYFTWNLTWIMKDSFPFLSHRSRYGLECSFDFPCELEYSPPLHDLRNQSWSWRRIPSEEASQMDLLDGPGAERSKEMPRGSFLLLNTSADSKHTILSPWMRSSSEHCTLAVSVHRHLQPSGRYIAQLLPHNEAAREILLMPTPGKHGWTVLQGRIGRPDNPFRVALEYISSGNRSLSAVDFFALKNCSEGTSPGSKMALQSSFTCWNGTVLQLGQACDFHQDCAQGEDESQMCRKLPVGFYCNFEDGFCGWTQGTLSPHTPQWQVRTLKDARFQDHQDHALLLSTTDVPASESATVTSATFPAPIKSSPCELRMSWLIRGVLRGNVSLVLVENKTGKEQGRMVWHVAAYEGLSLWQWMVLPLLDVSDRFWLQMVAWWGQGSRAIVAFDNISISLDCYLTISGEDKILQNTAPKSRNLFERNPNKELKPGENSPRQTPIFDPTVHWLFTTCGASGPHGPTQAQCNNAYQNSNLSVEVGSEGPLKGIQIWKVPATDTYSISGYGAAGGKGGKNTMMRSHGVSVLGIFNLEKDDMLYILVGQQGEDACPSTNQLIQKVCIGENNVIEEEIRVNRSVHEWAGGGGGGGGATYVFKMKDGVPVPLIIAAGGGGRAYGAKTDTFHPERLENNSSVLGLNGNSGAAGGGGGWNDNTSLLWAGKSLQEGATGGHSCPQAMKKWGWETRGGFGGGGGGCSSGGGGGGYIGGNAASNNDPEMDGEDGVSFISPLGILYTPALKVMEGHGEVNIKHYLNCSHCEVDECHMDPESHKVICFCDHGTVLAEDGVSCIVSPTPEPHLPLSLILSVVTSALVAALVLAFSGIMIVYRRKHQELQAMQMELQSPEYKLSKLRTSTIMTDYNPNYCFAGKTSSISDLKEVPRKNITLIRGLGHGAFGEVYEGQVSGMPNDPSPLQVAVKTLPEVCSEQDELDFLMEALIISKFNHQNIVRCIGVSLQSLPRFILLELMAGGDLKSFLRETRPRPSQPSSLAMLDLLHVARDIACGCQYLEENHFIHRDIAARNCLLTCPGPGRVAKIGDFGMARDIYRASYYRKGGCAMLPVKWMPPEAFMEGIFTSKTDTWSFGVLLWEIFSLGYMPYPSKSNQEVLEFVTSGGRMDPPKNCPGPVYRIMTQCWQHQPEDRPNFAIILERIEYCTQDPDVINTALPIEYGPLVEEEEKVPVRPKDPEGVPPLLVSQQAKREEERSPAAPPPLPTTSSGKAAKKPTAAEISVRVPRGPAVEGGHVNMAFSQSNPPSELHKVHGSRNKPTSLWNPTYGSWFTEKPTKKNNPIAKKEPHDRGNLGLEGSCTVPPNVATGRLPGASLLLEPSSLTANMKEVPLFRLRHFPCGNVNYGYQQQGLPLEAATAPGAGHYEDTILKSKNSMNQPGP
# protein kinases of the Z-LYTE panel (Homo sapiens, UniProt P06213), sequence (P06213 28-1382): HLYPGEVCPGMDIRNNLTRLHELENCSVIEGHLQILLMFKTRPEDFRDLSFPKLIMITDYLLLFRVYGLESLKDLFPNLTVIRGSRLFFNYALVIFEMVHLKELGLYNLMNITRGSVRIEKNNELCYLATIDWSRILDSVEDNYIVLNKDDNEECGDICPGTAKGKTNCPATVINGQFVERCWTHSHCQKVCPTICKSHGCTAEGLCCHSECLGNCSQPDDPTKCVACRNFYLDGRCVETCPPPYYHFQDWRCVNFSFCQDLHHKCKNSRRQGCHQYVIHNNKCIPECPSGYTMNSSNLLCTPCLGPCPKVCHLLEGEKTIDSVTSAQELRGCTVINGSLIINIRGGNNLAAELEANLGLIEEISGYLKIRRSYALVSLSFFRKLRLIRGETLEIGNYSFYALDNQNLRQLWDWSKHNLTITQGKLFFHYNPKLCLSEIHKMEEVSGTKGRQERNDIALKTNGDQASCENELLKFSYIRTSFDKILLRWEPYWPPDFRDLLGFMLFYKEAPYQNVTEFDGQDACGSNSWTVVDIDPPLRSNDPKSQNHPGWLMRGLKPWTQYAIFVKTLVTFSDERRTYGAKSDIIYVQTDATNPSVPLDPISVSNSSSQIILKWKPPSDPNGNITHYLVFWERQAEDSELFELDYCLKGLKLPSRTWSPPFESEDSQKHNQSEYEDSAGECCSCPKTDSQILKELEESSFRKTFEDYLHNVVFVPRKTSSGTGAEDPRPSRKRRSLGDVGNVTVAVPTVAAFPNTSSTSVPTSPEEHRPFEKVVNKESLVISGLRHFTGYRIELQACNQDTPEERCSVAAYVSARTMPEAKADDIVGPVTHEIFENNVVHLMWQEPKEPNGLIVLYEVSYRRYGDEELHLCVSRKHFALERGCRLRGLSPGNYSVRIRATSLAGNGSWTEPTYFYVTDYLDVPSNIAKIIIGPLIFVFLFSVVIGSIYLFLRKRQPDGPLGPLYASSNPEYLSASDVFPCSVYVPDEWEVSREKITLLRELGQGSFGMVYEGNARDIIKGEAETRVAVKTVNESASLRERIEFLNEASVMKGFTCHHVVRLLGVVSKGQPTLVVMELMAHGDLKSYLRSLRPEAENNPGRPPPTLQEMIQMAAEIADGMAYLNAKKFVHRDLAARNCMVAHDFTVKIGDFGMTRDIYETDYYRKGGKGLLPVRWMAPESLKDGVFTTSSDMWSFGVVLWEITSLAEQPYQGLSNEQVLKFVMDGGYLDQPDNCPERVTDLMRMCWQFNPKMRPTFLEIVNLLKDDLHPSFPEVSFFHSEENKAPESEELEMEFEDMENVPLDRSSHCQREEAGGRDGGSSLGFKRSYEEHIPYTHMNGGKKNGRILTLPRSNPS
# protein kinases of the Z-LYTE panel (Homo sapiens, UniProt P23443), sequence (P23443 whole entry): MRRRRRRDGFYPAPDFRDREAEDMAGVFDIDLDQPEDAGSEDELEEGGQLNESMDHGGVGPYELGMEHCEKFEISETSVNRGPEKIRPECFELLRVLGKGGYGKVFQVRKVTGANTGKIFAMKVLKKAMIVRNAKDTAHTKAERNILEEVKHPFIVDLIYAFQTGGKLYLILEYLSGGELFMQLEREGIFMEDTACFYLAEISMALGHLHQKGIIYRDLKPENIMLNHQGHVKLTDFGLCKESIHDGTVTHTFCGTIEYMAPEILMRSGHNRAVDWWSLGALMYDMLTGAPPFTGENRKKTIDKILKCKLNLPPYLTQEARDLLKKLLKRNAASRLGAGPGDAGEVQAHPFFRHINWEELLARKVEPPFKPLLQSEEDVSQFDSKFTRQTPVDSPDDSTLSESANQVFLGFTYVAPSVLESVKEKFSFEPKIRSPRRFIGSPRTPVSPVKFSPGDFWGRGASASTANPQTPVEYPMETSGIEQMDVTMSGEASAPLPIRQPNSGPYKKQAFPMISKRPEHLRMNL
# protein kinases of the Z-LYTE panel (Homo sapiens, UniProt Q02750), sequence (Q02750 whole entry): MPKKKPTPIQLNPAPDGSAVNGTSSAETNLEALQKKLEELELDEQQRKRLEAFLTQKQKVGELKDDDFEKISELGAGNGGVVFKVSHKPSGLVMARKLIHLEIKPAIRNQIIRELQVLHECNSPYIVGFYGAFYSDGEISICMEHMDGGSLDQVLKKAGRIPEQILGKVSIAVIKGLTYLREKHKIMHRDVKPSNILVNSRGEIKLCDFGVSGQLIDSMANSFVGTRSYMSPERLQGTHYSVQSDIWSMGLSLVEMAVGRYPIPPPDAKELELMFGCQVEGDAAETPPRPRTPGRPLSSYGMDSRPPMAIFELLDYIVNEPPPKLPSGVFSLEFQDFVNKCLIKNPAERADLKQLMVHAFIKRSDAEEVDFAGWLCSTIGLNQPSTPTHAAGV
# protein kinases of the Z-LYTE panel (Homo sapiens, UniProt Q06187), sequence (Q06187 whole entry): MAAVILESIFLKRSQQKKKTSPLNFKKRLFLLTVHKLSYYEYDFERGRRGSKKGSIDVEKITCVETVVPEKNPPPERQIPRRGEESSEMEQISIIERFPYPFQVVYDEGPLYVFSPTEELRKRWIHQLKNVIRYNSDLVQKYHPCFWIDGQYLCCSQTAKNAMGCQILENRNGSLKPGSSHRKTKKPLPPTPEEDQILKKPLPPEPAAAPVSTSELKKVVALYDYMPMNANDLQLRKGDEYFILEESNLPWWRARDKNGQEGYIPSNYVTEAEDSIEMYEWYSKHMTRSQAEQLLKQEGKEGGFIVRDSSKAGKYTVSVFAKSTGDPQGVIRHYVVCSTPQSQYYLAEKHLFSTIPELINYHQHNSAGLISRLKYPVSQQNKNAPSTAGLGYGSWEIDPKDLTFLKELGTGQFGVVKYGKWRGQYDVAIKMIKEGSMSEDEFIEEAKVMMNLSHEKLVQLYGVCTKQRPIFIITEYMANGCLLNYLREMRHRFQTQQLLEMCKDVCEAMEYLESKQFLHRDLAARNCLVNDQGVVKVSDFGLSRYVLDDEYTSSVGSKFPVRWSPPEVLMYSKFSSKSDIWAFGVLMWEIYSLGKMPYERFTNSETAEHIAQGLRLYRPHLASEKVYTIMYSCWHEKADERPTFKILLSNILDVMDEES
smiles,measurement,setting,value
CCN1CCN(c2ccc(Nc3cc(Nc4cccc5c4N(C(C)=O)CC5)ccn3)cc2)CC1 [Compound 1938],inhibition at 1 µM,[1]; read-out: % Inhibition Point 1,28%
same,inhibition at 1 µM,[1]; read-out: % Inhibition Point 2,32%
same,inhibition at 1 µM,[1]; read-out: % Inhibition mean,30%
same,inhibition at 1 µM,[2]; read-out: % Inhibition Point 1,0.622%
same,inhibition at 1 µM,[2]; read-out: % Inhibition Point 2,-0.215%
same,inhibition at 1 µM,[2]; read-out: % Inhibition mean,0.204%
same,inhibition at 1 µM,[3]; read-out: % Inhibition Point 1,8%
same,inhibition at 1 µM,[3]; read-out: % Inhibition Point 2,7%
same,inhibition at 1 µM,[3]; read-out: % Inhibition mean,8%
same,inhibition at 1 µM,[4]; read-out: % Inhibition Point 1,9%
same,inhibition at 1 µM,[4]; read-out: % Inhibition Point 2,8%
same,inhibition at 1 µM,[4]; read-out: % Inhibition mean,9%
same,inhibition at 1 µM,[5]; read-out: % Inhibition Point 1,-3.77%
same,inhibition at 1 µM,[5]; read-out: % Inhibition Point 2,-2.13%
same,inhibition at 1 µM,[5]; read-out: % Inhibition mean,-3%
same,inhibition at 1 µM,[6]; read-out: % Inhibition Point 1,-3.66%
same,inhibition at 1 µM,[6]; read-out: % Inhibition Point 2,-2.5%
same,inhibition at 1 µM,[6]; read-out: % Inhibition mean,-3%
same,inhibition at 1 µM,[7]; read-out: % Inhibition Point 1,6%
same,inhibition at 1 µM,[7]; read-out: % Inhibition Point 2,5.47%
same,inhibition at 1 µM,[7]; read-out: % Inhibition mean,6%
same,inhibition at 1 µM,[8]; read-out: % Inhibition Point 1,26%
same,inhibition at 1 µM,[8]; read-out: % Inhibition Point 2,20%
same,inhibition at 1 µM,[8]; read-out: % Inhibition mean,23%
same,inhibition at 1 µM,[9]; read-out: % Inhibition Point 1,4%
same,inhibition at 1 µM,[9]; read-out: % Inhibition Point 2,3.36%
same,inhibition at 1 µM,[9]; read-out: % Inhibition mean,3.61%
same,inhibition at 1 µM,[10]; read-out: % Inhibition Point 1,2.67%
same,inhibition at 1 µM,[10]; read-out: % Inhibition Point 2,-0.609%
same,inhibition at 1 µM,[10]; read-out: % Inhibition mean,1%
same,inhibition at 1 µM,[11]; read-out: % Inhibition Point 1,11%
same,inhibition at 1 µM,[11]; read-out: % Inhibition Point 2,15%
same,inhibition at 1 µM,[11]; read-out: % Inhibition mean,13%
same,inhibition at 1 µM,[12]; read-out: % Inhibition Point 1,-6%
same,inhibition at 1 µM,[12]; read-out: % Inhibition Point 2,-5%
same,inhibition at 1 µM,[12]; read-out: % Inhibition mean,-5.54%
same,inhibition at 1 µM,[13]; read-out: % Inhibition Point 1,6.51%
same,inhibition at 1 µM,[13]; read-out: % Inhibition Point 2,5%
same,inhibition at 1 µM,[13]; read-out: % Inhibition mean,5.64%
same,inhibition at 1 µM,[14]; read-out: % Inhibition Point 1,5.38%
same,inhibition at 1 µM,[14]; read-out: % Inhibition Point 2,5%
same,inhibition at 1 µM,[14]; read-out: % Inhibition mean,5%
